Measured values taken from ChEMBL document CHEMBL4507278 (2021).

Legend:
[1] = target: Activin receptor type-1B (Homo sapiens) (UniProt P36896); conditions: Compound concentration 1000.0 nM
[2] = target: Aurora kinase C (Homo sapiens) (UniProt Q9UQB9); conditions: Compound concentration 1000.0 nM
[3] = target: Bone morphogenetic protein receptor type-2 (Homo sapiens) (UniProt Q13873); conditions: Compound concentration 1000.0 nM
[4] = tested on: Serine/threonine-protein kinase B-raf (Homo sapiens), P15056 [V600E]; conditions: Compound concentration 1000.0 nM
[5] = target: Calcium/calmodulin-dependent protein kinase type II subunit gamma (Homo sapiens) (UniProt Q13555); conditions: Compound concentration 1000.0 nM
[6] = target: Casein kinase I isoform delta (Homo sapiens) (UniProt P48730); conditions: Compound concentration 1000.0 nM
[7] = target: Serine/threonine-protein kinase DCLK3 (Homo sapiens) (UniProt Q9C098); conditions: Compound concentration 1000.0 nM
[8] = target: Myotonin-protein kinase (Homo sapiens) (UniProt Q09013); conditions: Compound concentration 1000.0 nM
[9] = target: Receptor tyrosine-protein kinase erbB-2 (Homo sapiens) (UniProt P04626); conditions: Compound concentration 1000.0 nM
[10] = target: Mitogen-activated protein kinase 1 (Homo sapiens) (UniProt P28482); conditions: Compound concentration 1000.0 nM
[11] = target: Vascular endothelial growth factor receptor 1 (Homo sapiens) (UniProt P17948); conditions: Compound concentration 1000.0 nM
[12] = target: Serine/threonine-protein kinase ICK (Homo sapiens) (UniProt Q9UPZ9); conditions: Compound concentration 1000.0 nM
[13] = target: Inhibitor of nuclear factor kappa-B kinase subunit alpha (Homo sapiens) (UniProt O15111); conditions: Compound concentration 1000.0 nM
[14] = target: Mast/stem cell growth factor receptor Kit (Homo sapiens) (UniProt P10721); conditions: Compound concentration 1000.0 nM
[15] = target: Tyrosine-protein kinase Lck (Homo sapiens) (UniProt P06239); conditions: Compound concentration 1000.0 nM
[16] = target: Mitogen-activated protein kinase kinase kinase 15 (Homo sapiens) (UniProt Q6ZN16); conditions: Compound concentration 1000.0 nM
[17] = target: Microtubule-associated serine/threonine-protein kinase 1 (Homo sapiens) (UniProt Q9Y2H9); conditions: Compound concentration 1000.0 nM
[18] = target: MAP kinase-interacting serine/threonine-protein kinase 1 (Homo sapiens) (UniProt Q9BUB5); conditions: Compound concentration 1000.0 nM
[19] = target: Serine/threonine-protein kinase MRCK beta (Homo sapiens) (UniProt Q9Y5S2); conditions: Compound concentration 1000.0 nM
[20] = target: Macrophage-stimulating protein receptor (Homo sapiens) (UniProt Q04912); conditions: Compound concentration 1000.0 nM
[21] = target: Serine/threonine-protein kinase 3 (Homo sapiens) (UniProt Q13188); conditions: Compound concentration 1000.0 nM
[22] = target: Myosin light chain kinase family member 4 (Homo sapiens) (UniProt Q86YV6); conditions: Compound concentration 1000.0 nM
[23] = target: Serine/threonine-protein kinase Nek1 (Homo sapiens) (UniProt Q96PY6); conditions: Compound concentration 1000.0 nM
[24] = target: Serine/threonine-protein kinase Nek5 (Homo sapiens) (UniProt Q6P3R8); conditions: Compound concentration 1000.0 nM
[25] = target: Serine/threonine-protein kinase Nek6 (Homo sapiens) (UniProt Q9HC98); conditions: Compound concentration 1000.0 nM
[26] = target: Serine/threonine-protein kinase Nek9 (Homo sapiens) (UniProt Q8TD19); conditions: Compound concentration 1000.0 nM
[27] = target: Calcium-dependent protein kinase 1 (Plasmodium falciparum) (UniProt P62344); conditions: Compound concentration 1000.0 nM
[28] = target: Serine/threonine-protein kinase pim-1 (Homo sapiens) (UniProt P11309); conditions: Compound concentration 1000.0 nM
[29] = target: Protein kinase C delta type (Homo sapiens) (UniProt Q05655); conditions: Compound concentration 1000.0 nM
[30] = target: cGMP-dependent protein kinase 1 (Homo sapiens) (UniProt Q13976); conditions: Compound concentration 1000.0 nM
[31] = target: Receptor-interacting serine/threonine-protein kinase 1 (Homo sapiens) (UniProt Q13546); conditions: Compound concentration 1000.0 nM
[32] = target: Ribosomal protein S6 kinase alpha-3 (Homo sapiens) (UniProt P51812); conditions: Compound concentration 1000.0 nM
[33] = target: NUAK family SNF1-like kinase 2 (Homo sapiens) (UniProt Q9H093); conditions: Compound concentration 1000.0 nM
[34] = target: Serine/threonine-protein kinase TNNI3K (Homo sapiens) (UniProt Q59H18); conditions: Compound concentration 1000.0 nM
[35] = target: Tyrosine-protein kinase receptor TYRO3 (Homo sapiens) (UniProt Q06418); conditions: Compound concentration 1000.0 nM
[36] = target: Serine/threonine-protein kinase VRK2 (Homo sapiens) (UniProt Q86Y07); conditions: Compound concentration 1000.0 nM
[37] = target: Tyrosine-protein kinase Yes (Homo sapiens) (UniProt P07947); conditions: Compound concentration 1000.0 nM
[38] = target: T1, 5-hydroxytryptamine receptor 1A (Homo sapiens) (UniProt P08908); conditions: Compound concentration 10.0 uM
T1 sequence (whole entry): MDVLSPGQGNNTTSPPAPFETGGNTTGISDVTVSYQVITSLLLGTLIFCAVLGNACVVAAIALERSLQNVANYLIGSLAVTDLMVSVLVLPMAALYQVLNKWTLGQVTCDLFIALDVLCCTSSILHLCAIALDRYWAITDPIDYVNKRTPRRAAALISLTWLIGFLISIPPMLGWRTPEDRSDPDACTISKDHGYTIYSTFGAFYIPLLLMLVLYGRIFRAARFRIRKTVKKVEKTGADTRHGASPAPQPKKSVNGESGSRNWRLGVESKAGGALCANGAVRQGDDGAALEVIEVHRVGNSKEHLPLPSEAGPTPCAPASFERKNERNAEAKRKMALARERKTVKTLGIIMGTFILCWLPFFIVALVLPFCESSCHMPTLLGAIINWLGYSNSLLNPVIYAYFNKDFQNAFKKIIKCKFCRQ

[39] = target: Histamine H4 receptor (Homo sapiens) (UniProt Q9H3N8); conditions: Compound concentration 10.0 uM

cGMP-dependent protein kinase 1 (Homo sapiens), sequence (Q13976 whole entry): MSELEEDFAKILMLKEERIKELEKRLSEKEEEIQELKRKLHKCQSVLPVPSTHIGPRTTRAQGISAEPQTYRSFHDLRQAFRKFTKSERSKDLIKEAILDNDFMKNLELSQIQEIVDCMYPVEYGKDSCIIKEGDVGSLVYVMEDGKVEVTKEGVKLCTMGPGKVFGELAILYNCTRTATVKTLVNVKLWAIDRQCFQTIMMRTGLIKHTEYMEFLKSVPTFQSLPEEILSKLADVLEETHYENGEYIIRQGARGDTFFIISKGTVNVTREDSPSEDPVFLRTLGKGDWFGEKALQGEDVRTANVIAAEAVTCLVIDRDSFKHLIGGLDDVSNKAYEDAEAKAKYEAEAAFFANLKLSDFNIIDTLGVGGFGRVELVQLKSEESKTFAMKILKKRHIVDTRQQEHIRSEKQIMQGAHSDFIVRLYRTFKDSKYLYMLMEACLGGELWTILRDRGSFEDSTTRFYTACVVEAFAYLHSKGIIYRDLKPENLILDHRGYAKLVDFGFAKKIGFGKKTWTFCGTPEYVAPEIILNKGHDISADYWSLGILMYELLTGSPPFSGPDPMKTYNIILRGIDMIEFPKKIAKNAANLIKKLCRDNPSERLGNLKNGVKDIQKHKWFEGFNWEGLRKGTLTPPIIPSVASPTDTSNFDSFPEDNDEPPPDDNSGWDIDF
Aurora kinase C (Homo sapiens), sequence (Q9UQB9 whole entry): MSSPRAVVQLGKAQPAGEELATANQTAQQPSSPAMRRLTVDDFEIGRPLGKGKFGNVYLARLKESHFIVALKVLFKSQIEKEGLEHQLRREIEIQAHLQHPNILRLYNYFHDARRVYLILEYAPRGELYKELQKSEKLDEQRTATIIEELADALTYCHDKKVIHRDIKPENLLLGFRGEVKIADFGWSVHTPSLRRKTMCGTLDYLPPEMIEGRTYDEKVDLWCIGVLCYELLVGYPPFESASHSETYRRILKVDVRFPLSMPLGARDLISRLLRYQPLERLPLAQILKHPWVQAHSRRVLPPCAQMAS
Tyrosine-protein kinase receptor TYRO3 (Homo sapiens), sequence (Q06418 whole entry): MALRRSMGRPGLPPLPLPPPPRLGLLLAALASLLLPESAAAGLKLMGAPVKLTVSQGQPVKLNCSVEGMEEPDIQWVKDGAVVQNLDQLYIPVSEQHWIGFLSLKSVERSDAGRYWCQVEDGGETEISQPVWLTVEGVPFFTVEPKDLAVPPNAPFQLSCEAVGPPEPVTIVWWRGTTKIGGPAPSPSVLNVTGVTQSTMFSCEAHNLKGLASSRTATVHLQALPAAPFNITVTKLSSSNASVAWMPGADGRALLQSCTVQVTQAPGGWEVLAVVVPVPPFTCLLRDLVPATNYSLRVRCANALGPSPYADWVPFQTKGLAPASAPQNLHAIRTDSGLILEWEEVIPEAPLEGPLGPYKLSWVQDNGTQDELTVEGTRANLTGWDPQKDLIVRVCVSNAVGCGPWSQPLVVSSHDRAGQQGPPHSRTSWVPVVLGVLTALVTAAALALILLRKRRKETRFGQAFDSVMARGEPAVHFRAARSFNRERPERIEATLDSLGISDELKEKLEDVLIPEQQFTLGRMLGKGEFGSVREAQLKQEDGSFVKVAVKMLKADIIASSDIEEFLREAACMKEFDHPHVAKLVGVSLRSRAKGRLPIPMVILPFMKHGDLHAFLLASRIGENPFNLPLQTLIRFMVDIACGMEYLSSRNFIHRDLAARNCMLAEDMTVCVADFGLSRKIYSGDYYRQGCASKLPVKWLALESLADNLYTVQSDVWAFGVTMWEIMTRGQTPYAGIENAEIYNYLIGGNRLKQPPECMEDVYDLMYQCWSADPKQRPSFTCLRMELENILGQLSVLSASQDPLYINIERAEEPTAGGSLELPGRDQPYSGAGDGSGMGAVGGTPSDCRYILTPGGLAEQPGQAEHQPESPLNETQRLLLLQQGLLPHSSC
Inhibitor of nuclear factor kappa-B kinase subunit alpha (Homo sapiens), sequence (O15111 whole entry): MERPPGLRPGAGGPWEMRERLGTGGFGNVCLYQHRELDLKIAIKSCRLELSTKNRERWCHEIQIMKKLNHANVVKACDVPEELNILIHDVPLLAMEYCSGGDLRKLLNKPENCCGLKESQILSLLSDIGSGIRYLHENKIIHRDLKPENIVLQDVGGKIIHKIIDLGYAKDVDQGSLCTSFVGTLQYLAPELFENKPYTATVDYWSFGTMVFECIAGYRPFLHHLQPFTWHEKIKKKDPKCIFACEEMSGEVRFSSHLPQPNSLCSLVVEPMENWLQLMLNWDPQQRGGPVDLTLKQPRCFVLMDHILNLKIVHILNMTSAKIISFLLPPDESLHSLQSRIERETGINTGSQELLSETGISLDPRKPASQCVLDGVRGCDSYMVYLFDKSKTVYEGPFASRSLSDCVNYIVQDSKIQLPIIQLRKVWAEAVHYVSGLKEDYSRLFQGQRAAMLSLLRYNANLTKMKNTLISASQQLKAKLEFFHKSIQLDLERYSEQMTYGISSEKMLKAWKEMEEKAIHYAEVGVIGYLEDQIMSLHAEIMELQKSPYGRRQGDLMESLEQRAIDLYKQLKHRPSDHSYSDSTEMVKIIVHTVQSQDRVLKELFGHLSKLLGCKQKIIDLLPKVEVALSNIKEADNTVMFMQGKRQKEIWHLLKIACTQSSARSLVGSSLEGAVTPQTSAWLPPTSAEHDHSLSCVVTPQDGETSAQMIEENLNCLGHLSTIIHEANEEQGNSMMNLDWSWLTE
Serine/threonine-protein kinase DCLK3 (Homo sapiens), sequence (Q9C098 whole entry): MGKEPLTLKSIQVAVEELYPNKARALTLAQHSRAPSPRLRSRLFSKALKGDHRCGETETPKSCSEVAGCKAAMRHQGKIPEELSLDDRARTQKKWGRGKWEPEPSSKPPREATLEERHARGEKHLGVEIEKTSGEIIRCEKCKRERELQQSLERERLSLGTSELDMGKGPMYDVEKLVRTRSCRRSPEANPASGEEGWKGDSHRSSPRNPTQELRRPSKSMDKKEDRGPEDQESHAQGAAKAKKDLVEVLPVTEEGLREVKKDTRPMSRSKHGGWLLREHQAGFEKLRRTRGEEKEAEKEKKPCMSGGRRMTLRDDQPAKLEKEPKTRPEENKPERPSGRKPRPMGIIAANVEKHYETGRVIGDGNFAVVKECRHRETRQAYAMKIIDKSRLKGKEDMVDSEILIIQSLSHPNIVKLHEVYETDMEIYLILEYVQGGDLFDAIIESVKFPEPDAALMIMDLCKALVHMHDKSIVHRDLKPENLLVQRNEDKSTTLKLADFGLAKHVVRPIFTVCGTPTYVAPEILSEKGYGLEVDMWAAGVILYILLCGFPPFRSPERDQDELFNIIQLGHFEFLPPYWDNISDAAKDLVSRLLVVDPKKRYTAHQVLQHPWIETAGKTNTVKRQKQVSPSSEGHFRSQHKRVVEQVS
Calcium-dependent protein kinase 1 (Plasmodium falciparum), sequence (P62344 2-524 limits assumed): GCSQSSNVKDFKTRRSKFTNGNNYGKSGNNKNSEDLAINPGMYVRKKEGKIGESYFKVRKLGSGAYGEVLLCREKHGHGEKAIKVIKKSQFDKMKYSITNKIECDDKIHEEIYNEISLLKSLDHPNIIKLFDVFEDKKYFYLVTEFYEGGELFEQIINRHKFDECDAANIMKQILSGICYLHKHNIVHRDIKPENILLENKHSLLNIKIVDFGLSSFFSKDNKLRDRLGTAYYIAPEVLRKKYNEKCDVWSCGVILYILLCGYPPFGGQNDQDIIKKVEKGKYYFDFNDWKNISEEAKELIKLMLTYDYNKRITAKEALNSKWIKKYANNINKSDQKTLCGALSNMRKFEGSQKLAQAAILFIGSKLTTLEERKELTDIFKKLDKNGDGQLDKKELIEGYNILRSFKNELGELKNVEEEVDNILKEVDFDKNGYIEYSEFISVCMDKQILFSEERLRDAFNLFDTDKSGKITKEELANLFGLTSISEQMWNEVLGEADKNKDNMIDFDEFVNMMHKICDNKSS
Serine/threonine-protein kinase pim-1 (Homo sapiens), sequence (P11309 whole entry, looked up): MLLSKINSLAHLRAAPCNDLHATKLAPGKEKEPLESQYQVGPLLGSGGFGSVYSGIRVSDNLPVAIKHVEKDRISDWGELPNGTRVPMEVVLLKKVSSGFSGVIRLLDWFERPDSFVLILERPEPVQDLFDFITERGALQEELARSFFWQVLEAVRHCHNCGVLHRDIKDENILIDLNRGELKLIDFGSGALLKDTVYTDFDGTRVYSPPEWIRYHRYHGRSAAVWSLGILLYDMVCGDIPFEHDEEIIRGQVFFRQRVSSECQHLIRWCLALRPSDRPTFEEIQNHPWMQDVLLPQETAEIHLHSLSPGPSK
Serine/threonine-protein kinase Nek5 (Homo sapiens), sequence (Q6P3R8 whole entry): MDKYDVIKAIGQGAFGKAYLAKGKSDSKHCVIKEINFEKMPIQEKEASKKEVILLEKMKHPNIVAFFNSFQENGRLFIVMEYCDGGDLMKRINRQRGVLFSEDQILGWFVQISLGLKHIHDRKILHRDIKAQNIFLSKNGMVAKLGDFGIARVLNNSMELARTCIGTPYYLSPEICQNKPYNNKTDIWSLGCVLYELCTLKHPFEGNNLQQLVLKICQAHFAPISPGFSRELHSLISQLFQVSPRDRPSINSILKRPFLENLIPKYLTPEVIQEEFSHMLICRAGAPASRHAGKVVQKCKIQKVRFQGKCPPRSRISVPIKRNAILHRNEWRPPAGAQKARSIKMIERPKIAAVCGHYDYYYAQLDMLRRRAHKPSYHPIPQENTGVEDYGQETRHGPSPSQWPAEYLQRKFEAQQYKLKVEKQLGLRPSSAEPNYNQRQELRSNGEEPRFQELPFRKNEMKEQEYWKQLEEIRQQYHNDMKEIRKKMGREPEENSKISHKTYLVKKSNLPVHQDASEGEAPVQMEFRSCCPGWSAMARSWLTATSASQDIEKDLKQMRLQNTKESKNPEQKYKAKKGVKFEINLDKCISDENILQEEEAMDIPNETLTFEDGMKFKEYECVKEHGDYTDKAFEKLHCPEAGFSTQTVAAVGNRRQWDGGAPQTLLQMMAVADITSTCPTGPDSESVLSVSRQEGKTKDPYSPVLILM

| Structure (SMILES) | residual activity [1] | residual activity [2] | residual activity [3] | residual activity [4] | residual activity [5] | residual activity [6] | residual activity [7] | residual activity [8] | residual activity [9] | residual activity [10] | residual activity [11] | residual activity [12] | residual activity [13] | residual activity [14] | residual activity [15] | residual activity [16] | residual activity [17] | residual activity [18] | residual activity [19] | residual activity [20] | also measured |
| --- | --- | --- | --- | --- | --- | --- | --- | --- | --- | --- | --- | --- | --- | --- | --- | --- | --- | --- | --- | --- | --- |
| CS(=O)(=O)NCC[C@H](NC(=O)c1cncc2c1cnn2-c1ccc(F)cc1)c1ccnc(S(C)(=O)=O)c1 [BI 9307] | 100% | 92% | 100% | 100% | 99% | 100% | 93% | 100% | 100% | 100% | 90% | 100% | 100% | 100% | 100% | 100% | 100% | 95% | 95% | 99% | residual activity [21]: 100%; residual activity [22]: 100%; residual activity [23]: 45%; residual activity [24]: 100%; residual activity [25]: 100%; residual activity [26]: 100%; residual activity [27]: 99%; residual activity [28]: 96%; residual activity [29]: 76%; residual activity [30]: 96%; residual activity [31]: 99%; residual activity [32]: 98%; residual activity [33]: 100%; residual activity [34]: 100%; residual activity [35]: 94%; residual activity [36]: 100%; residual activity [37]: 100%; inhibition [38]: 13.3%; inhibition [39]: -0.39% |
| CS(=O)(=O)c1cc(C2(NC(=O)c3cncc4c3cnn4-c3ccc(F)cc3)CC2)ccn1 [BI 639667] | 100% | 100% | 99% | 94% | 72% | 99% | 100% | 99% | 100% | 94% | 100% | 100% | 100% | 96% | 100% | 67% | 100% | 47% | 100% | 83% | residual activity [21]: 100%; residual activity [22]: 85%; residual activity [23]: 45%; residual activity [24]: 100%; residual activity [25]: 100%; residual activity [26]: 100%; residual activity [27]: 99%; residual activity [28]: 100%; residual activity [29]: 100%; residual activity [30]: 100%; residual activity [31]: 100%; residual activity [32]: 100%; residual activity [33]: 100%; residual activity [34]: 64%; residual activity [35]: 91%; residual activity [36]: 100%; residual activity [37]: 100%; inhibition [38]: -9.71%; inhibition [39]: 1.36% |
